Measured values from PubChem BioAssay (NCI).
Values joined by “and” are separate entries in the source; they are usually repeats but may differ in a detail not shown here. Equal entries are not always repeated.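 Briefly, cells in 96-well plates were exposed to five compound concentrations for 48 h, and endpoints were estimated by linear interpolation. GI50 is the concentration that inhibits growth by half. TGI is the concentration that stops growth completely.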

Columns and labels:
Assay in all cases: DTP human tumour cell line panel, 48 h
HCT-116 colon = tested on: HCT-116 colon
SW-620 colon = tested on: SW-620 colon
SF-295 CNS = tested on: SF-295 CNS
EKVX NSCLC = tested on: EKVX NSCLC
SR leukemia = tested on: SR leukemia
NCI/ADR-RES ovarian = tested on: NCI/ADR-RES ovarian
HCT-15 colon = tested on: HCT-15 colon
OVCAR-5 ovarian = tested on: OVCAR-5 ovarian
UACC-62 melanoma = tested on: UACC-62 melanoma
OVCAR-8 ovarian = tested on: OVCAR-8 ovarian
MDA-N = tested on: MDA-N

Compound | TGI (HCT-116 colon) | TGI (SW-620 colon) | TGI (SF-295 CNS) | TGI (EKVX NSCLC) | TGI (SR leukemia) | TGI (NCI/ADR-RES ovarian) | TGI (HCT-15 colon) | TGI (OVCAR-5 ovarian) | TGI (UACC-62 melanoma) | TGI (OVCAR-8 ovarian) | TGI (MDA-N) | GI50 (SR leukemia)
COc1ccc(N2C(=O)C3c4[nH]c5ccc(OCc6ccccc6)cc5c4C4CCC(c5ccccc5)CC4C3C2=O)cc1 (configuration not stated) | > 100 µM | 4.61 µM | 36.5 µM | 38.2 µM | 7.14 µM | > 100 µM | > 84 µM | > 95.8 µM | 29 µM | 47.5 µM | > 100 µM | 
COc1cc(/C=C2\C(=O)N(c3cccc([N+](=O)[O-])c3)C(c3ccccc3)S2(=O)=O)cc(OC)c1OC (configuration not stated) | > 100 µM | > 100 µM | > 100 µM | > 100 µM | > 100 µM | > 100 µM | > 100 µM | > 100 µM | > 100 µM | > 100 µM | > 100 µM | 
O=C(O)CCc1nc2c(n1-c1ccccc1)C(=O)c1ccccc1C2=O | > 100 µM | > 100 µM | > 100 µM | > 100 µM | > 100 µM | > 100 µM | > 100 µM | > 100 µM | > 100 µM | > 100 µM | > 100 µM | 
C=CCOC(=O)N1c2ccc(O[Si](C)(C)C(C)(C)C)cc2[C@@]23O[C@@]24[C@@H]1C#C/C=C\C#C[C@]3(O)C(OC)(OC)C[C@@H]4C | > 100 µM | > 100 µM | > 100 µM | > 100 µM | > 100 µM | > 100 µM | > 100 µM | > 100 µM | > 42 µM | > 100 µM | > 100 µM | 
N#CCCN(CCC#N)c1ccc(/C=C2\N=C(c3ccccc3)N(c3ccc(F)cc3)C2=O)cc1 | > 100 µM | > 100 µM | > 100 µM | > 100 µM | > 100 µM | > 100 µM | > 100 µM | > 100 µM | > 100 µM | > 100 µM | > 100 µM | 
OC1[C@@H]2[C@@H](O)CCCN2C[C@@H](O)[C@H]1O (some centres not stated) | > 100 µM | > 100 µM | > 100 µM | > 100 µM | > 100 µM | > 100 µM | > 100 µM | > 100 µM | > 100 µM | > 100 µM | > 100 µM | 
C[C@H](c1ccccc1)N1C(=O)[C@@H](O)[C@H]1[C@H](CO)OCc1ccccc1 | > 100 µM | > 100 µM | > 100 µM | > 100 µM | > 100 µM | > 100 µM | > 100 µM | > 100 µM | > 100 µM | > 100 µM | > 100 µM | 
CC(=O)c1c(-c2cccc3ccccc23)c(C#N)c(=S)n(C2OC(CO)C(O)C(O)C2O)c1C (configuration not stated) | > 100 µM | > 100 µM | > 100 µM | 32.4 µM | > 100 µM | > 100 µM | > 100 µM | > 100 µM | > 100 µM | > 100 µM | > 100 µM | > 100 µM and 33.6 µM
CC(C)/C(Cl)=N/OC(=O)Nc1ccc(Br)cc1 | 10.4 µM | 4.6 µM | 28.8 µM | 4.37 µM | 4.5 µM | 27.8 µM | 5.34 µM | 28.6 µM | 17 µM | 27.8 µM | 15.7 µM | 
CN(C)CCNc1ccc2c(=O)n(CCN(C)C)c(=O)n3c4ccc(O)cc4c(=O)c1c23 | 0.308 µM | 0.67 µM | 0.148 µM | 0.57 µM | < 0.01 µM | 9.39 µM | 4.35 µM | 2.34 µM | 0.147 µM | 0.358 µM | 0.26 µM | 
COc1ccc2c(c1)C(=O)CC1c3cnccc3C(=O)N21 (configuration not stated) | > 100 µM | > 100 µM | > 100 µM | > 100 µM | > 100 µM | > 100 µM | > 100 µM | > 100 µM | > 100 µM | > 100 µM | > 100 µM | 
O=[N+]([O-])c1ccccc1OCCOc1ccccc1[N+](=O)[O-] | > 100 µM | > 100 µM | > 100 µM | > 100 µM | > 100 µM | > 100 µM | > 100 µM | > 100 µM | > 100 µM | > 100 µM | > 100 µM | 
CCC/C(Cl)=N\OC(=O)Nc1ccc(F)cc1 | 31.1 µM | 27.2 µM | > 100 µM | 32.6 µM | 5.49 µM | > 62.3 µM | 19.3 µM | 36 µM | 27.5 µM | > 60.9 µM | 30.2 µM | 
O=c1[nH]c(Nc2ccccc2)nc2c1ncn2CC(O)CSCCO (configuration not stated) | > 100 µM | > 100 µM | > 100 µM | > 100 µM | > 100 µM | > 100 µM | > 100 µM | > 100 µM | > 100 µM | > 100 µM | > 100 µM | 
O=c1[nH]cc(NCCCl)c(=O)[nH]1 | > 100 µM | > 100 µM | > 100 µM | > 100 µM | > 100 µM | > 100 µM | > 100 µM | > 100 µM | > 100 µM | > 100 µM | > 100 µM | 
COc1cc2c(c3c1c(=O)c1ccccc1n3C)C=CC1(CCCC1)O2 | 28.6 µM | 37.2 µM | 12.1 µM | 26.4 µM | 52.8 µM | > 100 µM | 35.5 µM | 27 µM | 29.1 µM | 57.8 µM | 29.3 µM | 
COC(=O)C1=C(O)C(C(=O)OC)C2CC(=O)CC1C2(C)C (configuration not stated) | > 100 µM | > 100 µM | > 100 µM | > 100 µM | > 100 µM | > 100 µM | > 100 µM | > 100 µM | > 100 µM | > 100 µM | > 100 µM | 
O=C1c2cccc([N+](=O)[O-])c2C(=O)N1Cc1ccccc1 | > 100 µM | > 100 µM | > 100 µM | > 100 µM | > 100 µM | > 100 µM | > 100 µM | > 100 µM | > 100 µM | > 100 µM | > 100 µM | 
C=CCSC1=N/C(=C\c2ccc(Cl)cc2)C(=O)N1CC=C | > 100 µM | > 100 µM | > 100 µM | 57.3 µM | 48.4 µM | > 100 µM | > 100 µM | > 100 µM | > 100 µM | > 100 µM | > 100 µM | 
COc1cc2c(c(O)c1O)C(=O)C1CCC(=O)N1C2c1cccc2ccccc12 (configuration not stated) | > 50 µM | > 50 µM | > 50 µM | > 50 µM | > 50 µM | > 50 µM | > 50 µM | > 50 µM | > 50 µM | > 50 µM | > 50 µM | 
N#CN1C2CCC1CC(=O)C2 | > 100 µM | > 100 µM | > 100 µM | > 100 µM | > 100 µM | > 100 µM | > 100 µM | > 100 µM | > 100 µM | > 100 µM | > 100 µM | 
c1ccc(/C(=N/Nc2nc3ccccc3s2)C2CCCCC2)nc1 | 14.8 µM | 20.1 µM | 29.9 µM | 25.5 µM | 16.8 µM | 10.3 µM | 15.8 µM | 14.4 µM | 31.3 µM | 14.3 µM | 34.2 µM | 
COC(=O)C1(NC(=O)C(CC(=O)OCc2ccccc2)NC(=O)OCc2ccccc2)CCCCCC1 (configuration not stated) | > 100 µM | > 100 µM | > 100 µM | > 100 µM | 87.4 µM | 82.5 µM | > 100 µM | > 100 µM | 34.3 µM | 90.5 µM | 61.4 µM | 
Cc1cc(C)nc(NS(=O)(=O)c2ccc(NC(=O)c3c4ccccc4nc4ccccc34)cc2)n1 | > 100 µM | > 100 µM | > 100 µM | > 100 µM | > 100 µM | > 100 µM | > 100 µM | > 100 µM | > 100 µM | > 100 µM | > 100 µM | 
O=C(Nc1ccccc1F)c1cc2ccc(O)cc2oc1=Nc1cccc(F)c1 | 24.8 µM | 32.6 µM | 18.5 µM | 35.2 µM | 49.2 µM | 43 µM | 24.4 µM | 71 µM | 29.6 µM | 23.8 µM | 43.3 µM | 
CC(C)(C)c1ccccc1N1C(=O)c2ccc3c4c(ccc(c24)C1=O)N(c1ccccc1C(C)(C)C)C3=O | > 100 µM | > 100 µM | > 100 µM | > 100 µM | > 100 µM | > 100 µM | > 100 µM | > 100 µM | > 100 µM | > 100 µM | > 100 µM | 
